Patent publication US9695155B2, “Herbicidal substituted pyrimidinyloxy benzene compounds” (E. I. DU PONT DE NEMOURS AND COMPANY, priority 2013, dated 2017)

Legend:
cocklebur = test: Test C postemergence; format: in vivo, Xanthium strumarium; details: for Plant response rating (0 to 100), Cocklebur: postemergence; for Plant response rating, Cocklebur: Postemergence, scale 0 to 100 (0 no effect, 100 complete control)
Excerpt: (§1) Seeds of plant species selected from blackgrass (Alopecurus myosuroides), Italian ryegrass (Lolium multiflorum), wheat, winter (winter wheat, Triticum aestivum), galium (catchweed bedstraw, Galium aparine), corn (Zea mays), large (Lg) crabgrass (Digitaria sanguinalis), giant foxtail (Setaria faberii), johnsongrass (Sorghum halepense), lambsquarters (Chenopodium album), morningglory (Ipomoea coccinea), yellow nutsedge (Cyperus esculentus), pigweed (Amaranthus retroflexus), ragweed (common ragweed, Ambrosia elatior), soybean (Glycine max), barnyardgrass (Echinochloa crus-galli), oilseed rape (Brassica napus), waterhemp (common waterhemp, Amaranthus rudis), kochia (Kochia scoparia), wild oat (Avena fatua), surinam grass (Brachiaria decumbens), foxtail, green (green foxtail, Setaria viridis), goosegrass (Eleusine indica), bromegrass, downy (downy bromegrass, Bromus tectorum), nightshade (eastern black nightshade, Solanum ptycanthum), cocklebur (common cocklebur, Xanthium strumarium), cupgrass, woolly (woolly cupgrass, Eriochloa villosa), bermudagrass (Cynodon dactylon), sunflower, (common oilseed sunflower, Helianthus annuus), Russian thistle (Salsola kali), and velvetleaf (Abutilon theophrasti) were planted into a blend of loam soil and sand and treated preemergence with test chemicals formulated in a non-phytotoxic solvent mixture which included a surfactant.
(§2) At the same time, plants selected from these crop and weed species and also barley, winter (winter barley, Hordeum vulgare), windgrass (Apera spica-venti), chickweed (common chickweed, Stellaria media), deadnettle (henbit deadnettle, Lamium amplexicaule), and canarygrass (littleseed canarygrass, Phalaris minor) were planted in pots containing Redi-Earth® planting medium (Scotts Company, 14111 Scottslawn Road, Marysville, Ohio 43041) comprising spaghnum peat moss, vermiculite, wetting agent and starter nutrients and treated with postemergence applications of test chemicals formulated in the same manner. Plants ranged in height from 2 to 18 cm (1- to 4-leaf stage) for postemergence treatments. Treated plants and controls were maintained in a greenhouse for 13 to 15 days, after which time all species were compared to controls and visually evaluated. Plant response ratings, summarized in Table C, are based on a scale of 0 to 100 where 0 is no effect and 100 is complete control. A dash (-) response means no test result.

bermudagrass [1] = test: Test C preemergence; format: in vivo, Cynodon dactylon; details: for Bermudagrass plant response rating: preemergence, scale 0 (no effect) to 100 (complete control)
Excerpt: as §1, §2

bermudagrass [2] = test: Test C postemergence; format: in vivo, Cynodon dactylon; details: for Plant response rating (0 to 100), Bermudagrass: postemergence; for Plant response rating, Bermudagrass: Postemergence, scale 0 to 100 (0 no effect, 100 complete control)
Method in brief: (§3)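 Injury was assessed visually against controls 13 to 15 days after application, with 0 meaning no effect and 100 full control; missing entries are shown as a dash. Preemergence sprays hit seeded loam–sand soil, postemergence sprays hit 1- to 4-leaf plants.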

sunflower = test: Test C preemergence; format: in vivo, Helianthus annuus; details: for Sunflower plant response rating: preemergence, scale 0 (no effect) to 100 (complete control)
Excerpt: as §1, §2

surinam grass = test: Test C postemergence; format: in vivo, Brachiaria decumbens; details: for Plant response rating, Surinam Grass: Postemergence, scale 0 to 100 (0 no effect, 100 complete control)
Method in brief: as §3

canarygrass = test: Test C postemergence; format: in vivo, Phalaris minor; details: for Plant response rating (0 to 100), Canarygrass: postemergence; for Plant response rating, Canarygrass: Postemergence, scale 0 to 100 (0 no effect, 100 complete control)
Method in brief: as §3

wild oat = test: Test C preemergence; format: in vivo, Avena fatua; details: for Oat, Wild plant response rating: preemergence, scale 0 (no effect) to 100 (complete control)
Excerpt: as §1, §2

windgrass = test: Test C postemergence; format: in vivo, Apera spica-venti; details: for Plant response rating (0 to 100), Windgrass: postemergence; for Plant response rating, Windgrass: Postemergence, scale 0 to 100 (0 no effect, 100 complete control)
Method in brief: as §3

smartweed = test: Test E postemergence; format: in vivo, ladysthumb smartweed
Excerpt: Seeds of plant species selected from corn (Zea mays), soybean (Glycine max), velvetleaf (Abutilon theophrasti), lambsquarters (Chenopodium album), wild poinsettia (Euphorbia heterophylla), palmer pigweed (Amaranthus palmeri), waterhemp (common waterhemp, Amaranthus rudis), surinam grass (Brachiaria decumbens), large (Lg) crabgrass (Digitaria sanguinalis), Brazilian crabgrass (Digitaria horizontalis), fall panicum (Panicum dichotomiflorum), giant foxtail (Setaria faberii), green foxtail (Setaria viridis), goosegrass (Eleusine indica), johnsongrass (Sorghum halepense), ragweed (common ragweed, Ambrosia elatior), barnyardgrass (Echinochloa crus-galli), sandbur (southern sandbur, Cenchrus echinatus), arrowleaf sida (Sida rhombifolia), Italian ryegrass (Lolium multiflorum), dayflower (Virginia (VA) dayflower, Commelina virginica), field bindweed (Convolvulus arvensis), morningglory (Ipomoea coccinea), nightshade (eastern black nightshade, Solanum ptycanthum), kochia (Kochia scoparia), yellow nutsedge (Cyperus esculentus), cocklebur (common cocklebur, Xanthium strumarium), smartweed (ladysthumb smartweed, and hairy beggarticks (Bidens pilosa), were planted into a silt loam soil and treated preemergence with test chemicals formulated in a non-phytotoxic solvent mixture which included a surfactant.
At the same time, plants from these crop and weed species and also horseweed (Canada horseweed, Conyza canadensis), waterhemp_RES1, (ALS & Triazine resistant common waterhemp, Amaranthus rudis), and waterhemp_RES2, (ALS & HPPD resistant common waterhemp, Amaranthus rudis) were planted in pots containing Redi-Earth® planting medium (Scotts Company, 14111 Scottslawn Road, Marysville, Ohio 43041) comprising spaghnum peat moss, vermiculite, wetting agent and starter nutrients were treated with postemergence applications of test chemicals formulated in the same manner. Plants ranged in height from 2 to 18 cm for postemergence treatments (1- to 4-leaf stage). Treated plants and controls were maintained in a greenhouse for 14 to 21 days, after which time all species were compared to controls and visually evaluated. Plant response ratings, summarized in Table E, are based on a scale of 0 to 100 where 0 is no effect and 100 is complete control. A dash (-) response means no test result.

bromegrass, downy = test: Test C postemergence; format: in vivo, Bromus tectorum; details: for Plant response rating (0 to 100), Bromegrass, Downy: postemergence; for Plant response rating, Bromegrass, Downy: Postemergence, scale 0 to 100 (0 no effect, 100 complete control)
Excerpt: as §1, §2

[3] = system: waterhemp_RES1 (ALS & Triazine resistant common waterhemp); test: Test E postemergence; format: in vivo, Amaranthus rudis
Method in brief: (§4)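 Response was scored visually on a 0-100 scale (100 = complete control) versus controls after 14 to 21 days in the greenhouse. Test chemicals, formulated with surfactant in a non-phytotoxic solvent mixture, had been applied preemergence to seeds in silt loam soil or postemergence to 1- to 4-leaf plants in potting medium.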

palmer pigweed = test: Test E postemergence; format: in vivo, Amaranthus palmeri; details: post-emergence, read-out: Plant response rating, Pigweed, Palmer
Method in brief: as §4

[4] = Preemergence, 31 g ai/ha, scale 0 to 100, 0 no effect, 100 complete control
[5] = Postemergence, 31 g ai/ha, scale 0 to 100
[6] = Postemergence, 62 g ai/ha, scale 0 to 100
[7] = Postemergence, 125 g ai/ha, scale 0 to 100
[8] = postemergence, 8 g ai/ha, scale 0 to 100, 0 no effect, 100 complete control
[9] = postemergence, 16 g ai/ha, scale 0 to 100, 0 no effect, 100 complete control

Clc1cnc(Oc2ccccc2-n2cc(Br)cn2)nc1 [Compound 7, 2-[2-(4-bromo-1H-pyrazol-1-yl)phenoxy]-5-chloropyrimidine]
Plant response rating (0 to 100), Cocklebur (cocklebur; 125 g ai/ha): 55
Plant response rating (0 to 100), Cocklebur (cocklebur; 250 g ai/ha): 80
Plant response rating, Cocklebur (cocklebur; 31 g ai/ha, 13 to 15 days): 35
Plant response rating, Cocklebur (cocklebur; 62 g ai/ha): 45
Bermudagrass plant response rating (bermudagrass [1]; 62 g ai/ha): 100
Bermudagrass plant response rating (bermudagrass [1]; 125 g ai/ha): 100
Bermudagrass plant response rating (bermudagrass [1]; 250 g ai/ha): 100
Plant response rating, Bermudagrass (bermudagrass [1]; [4]): 85
Plant response rating (0 to 100), Bermudagrass (bermudagrass [2]; 125 g ai/ha): 15
Plant response rating (0 to 100), Bermudagrass (bermudagrass [2]; 250 g ai/ha): 70
Plant response rating, Bermudagrass (bermudagrass [2]; 31 g ai/ha, 13 to 15 days): 0
Plant response rating, Bermudagrass (bermudagrass [2]; 62 g ai/ha): 5
Sunflower plant response rating (sunflower; 62 g ai/ha): 10
Sunflower plant response rating (sunflower; 125 g ai/ha): 10
Sunflower plant response rating (sunflower; 250 g ai/ha): 10
Plant response rating, Sunflower (sunflower; [4]): 0
Plant response rating (0 to 100), Surinam Grass (surinam grass; 125 g ai/ha, postemergence): 30
Plant response rating, Surinam Grass (surinam grass; 31 g ai/ha, 13 to 15 days): 15
Plant response rating, Surinam Grass (surinam grass; 62 g ai/ha): 20
Plant response rating (0 to 100), Canarygrass (canarygrass; 125 g ai/ha): 30
Plant response rating (0 to 100), Canarygrass (canarygrass; 250 g ai/ha): 80
Plant response rating, Canarygrass (canarygrass; 31 g ai/ha, 13 to 15 days): 5
Plant response rating, Canarygrass (canarygrass; 62 g ai/ha): 10
Oat, Wild plant response rating (wild oat; 62 g ai/ha): 5
Oat, Wild plant response rating (wild oat; 125 g ai/ha): 50
Oat, Wild plant response rating (wild oat; 250 g ai/ha): 80
Plant response rating, Oat, Wild (wild oat; [4]): 0
Plant response rating (0 to 100), Windgrass (windgrass; 125 g ai/ha): 55
Plant response rating (0 to 100), Windgrass (windgrass; 250 g ai/ha): 80
Plant response rating, Windgrass (windgrass; 31 g ai/ha, 13 to 15 days): 10
Plant response rating, Windgrass (windgrass; 62 g ai/ha): 55
Plant response rating, Smartweed (smartweed; [5]): 40
Plant response rating, Smartweed (smartweed; [6]): 70
Plant response rating, Smartweed (smartweed; [7]): 100
Plant response rating, Smartweed (smartweed; [8]): 15
Plant response rating, Smartweed (smartweed; [9]): 30
Plant response rating (0 to 100), Bromegrass, Downy (bromegrass, downy; 125 g ai/ha): 10
Plant response rating (0 to 100), Bromegrass, Downy (bromegrass, downy; 250 g ai/ha): 10
Plant response rating, Bromegrass, Downy (bromegrass, downy; 31 g ai/ha, 13 to 15 days): 5
Plant response rating, Bromegrass, Downy (bromegrass, downy; 62 g ai/ha): 5
Plant response rating, Waterhemp_RES1 [3, 5]: 80
Plant response rating, Waterhemp_RES1 [3, 6]: 95
Plant response rating, Waterhemp_RES1 [3, 7]: 90
Plant response rating, Waterhemp_RES1 [3, 8]: 65
Plant response rating, Waterhemp_RES1 [3, 9]: 70
pest or weed control at 31 g/ha (palmer pigweed; [5]): 50%
pest or weed control at 62 g/ha (palmer pigweed; [6]): 75%
pest or weed control at 125 g/ha (palmer pigweed; [7]): 85%
pest or weed control at 8 g/ha (palmer pigweed; [8]): 40%
pest or weed control at 16 g/ha (palmer pigweed; [9]): 60%
